# Data: patent US6870044B2, “Inflammation inducible hybrid promoters, vectors comprising them and uses thereof” (Universite Pierre et Marie Curie, priority 2000, dated 2005)
# Values joined by “and” are separate entries in the source; they are usually repeats but may differ in a detail not shown here. Identical values can stand only once.
# B1: synthetic promoter: PPAR response element (DR1)2 21 linked to fragment −247/+20 of the PLA2s IIA gene (nucleic acid)
# DNA: GTACCAATTCGACAAAACTAGGTCAAAGGTCATCAAAACTAGGTCAAAGGTCAAATTCGAACGCGGCAAAACTGCCTGAAATGTGTTTTGGCATCAGCTACTGACACGTAAGGTTTCCCAATCCTCAACTCTGTCCTGCCAGCTGATGAGGGGAAGGAAAGGGATTACCTAGGGGTATGGGCGACCAATCCTGAGTCCACCAACTGACCACGCCCATCCCCAGCCTTGTGCCTCACCTACCCCCAACCTCCCAGAGGGAGCAGCTATTTAAGGGGAGCAGGAGTGCAGAACAAACAAGACGGCCTGGGGATACAACTCTGGAGTCCTCTGAG
# modifications: PPRE/PLA2s hybrid promoter
# notes: PPAR response element (DR1)2 21 linked to fragment −247/+20 of the PLA2s IIA gene
# Key:
# [1] = form not soluble in water, dose 5 to 50 mg/kg, for example 30 mg/kg; cited from earlier work
# [2] = system: construct (DR)2 21-(−247/+20) sPLA2-CAT; experiment: CAT reporter, hybrid promoter (DR1)2 21-(−247/+20) sPLA2-CAT in transfected chondrocytes; format: cell-based, rabbit; conditions: for induction of the hybrid promoter, single inducer: PGJ2 10 μM, IL-1 10 ng/ml; for activation of the construct (DR1)2 21-(−247/+20)-CAT: 10^−4 M
# Experimental: (§1) The hind and forelegs of 3-week-old prepubescent rabbits (Fauve de Bourgogne) were dissected and chopped up under sterile conditions. The cartilage is removed with a scalpel and then the chondrocytes are dissociated by means of proteolytic enzymes: hyaluronidase 0.05% for 15 minutes, trypsine 0.25% for 30 minutes and collagenase 0.2% for 90 minutes. Finally, the HAM's F12 medium is added for 60 minutes. The suspension of chondrocytes is cultured in dishes 6 cm in diameter (150,000 cells per dish) in the presence of HAM's F12 medium containing 10% fetal calf serum.
# (§2) When these cells reach preconfluence (6 to 7 days), they are transfected with the various constructs using the calcium phosphate method.
# (§3) The CAT activity is measured according to the double liquid phase technique according to Desbois et al. (1992). The β-galactosidase activity is measured with the aim of normalizing the variations in the transfection efficiency.
# (§4) The fragment −247/+20 of the promoter of sPLA2 IIA (SEQ ID NO:5) was subcloned upstream of the CAT reporter vector for the plasmid PUC-SH-CAT. Upstream of this promoter, the different PPRE sequences cited above (SEQ ID NO: 1-4) were inserted.
# (§5) The rabbit chondrocytes were then transfected with the CAT constructs containing the different arrangements of PPRE (DR1) placed upstream of the minimal promoter of sPLA2-IIA. 15 deoxy Δ^12-14 PGJ2 (10 μM) (activator of PPARγ) or Wy-14643 (200 μM) (activator of PPARα) were then added to the culture medium for 24 hours.
# (§6) Rabbit chondrocytes were then transfected, either with the minimal promoter of sPLA2-IIA, or with the sequence (DR1)2 21 placed upstream of the latter (hybrid promoter). PGJ2 (10 μM) and/or IL-1 (10 ng/ml) are added to the culture medium.
# [3] = system: minimal promoter (−247/+20) of sPLA2-IIA; experiment: CAT reporter, minimal promoter (−247/+20) of sPLA2-IIA in transfected chondrocytes; format: cell-based, rabbit; conditions: for activation of the minimal promoter (−247/+20) of sPLA2-IIA: PGJ2 10 μM or Wy-14643 200 μM, 24 hours
# Experimental: as §1, §2, §3, §4, §5, §6
# [4] = system: PPARγ and RXR proteins prepared in Cos-1 cells; experiment: Gel retardation, cooperative binding of PPARγ/RXR to radiolabeled PPRE sequences; conditions: for cooperativity ratio KdII/KdIV (R): PPARγ/RXR ratio 3:1, Cos-1 extracts 1 μl to 10 μl, Phosphorimager quantification
# Experimental: (§7) The Cos-1 cells (transformed monkey kidney fibroblasts) are transfected according to the abovementioned calcium phosphate technique using 20 μg of vectors for expression of PPARγ, PPARα or RXR. Non-transfected Cos-1 cells will serve as control. 48 hours after the transfection, the cells are incubated with a buffer containing KCl (0.45 M), Tris-HCl (20 mM, pH=7.5) and 10% glycerol. They are detached by scraping and then disrupted by cooling to −80° C. and thawing at 37° C. These cells are then centrifuged at 15,000 rpm, for 10 minutes at 4° C. The supernatant is then frozen at −80° C. and used for the gel retardation experiments.
# (§8) The sequences DR1, (DR1)2 17, (DR1)2 21, and (DR1)2 31 are radiolabeled by means of the Klenow fragment of DNA polymerase using [α-^32P]dCTP. One hundred thousand cpm (0.4 ng) of the radiolabeled probes are incubated, for 30 minutes at 4° C., with increasing quantities of Cos-1 extracts enriched with PPAR and RXR (as indicated in the legend to the figures) and with a specific binding buffer (KCl 100 mM, Hepes 40 mM, pH 7.5, NP40 0.1%, ZnCl2 0.5 mM, PEG 8%). The mixture is then deposited on an acrylamide/bisacrylamide gel (5%, TBE 0.25×) and run for 2 hours 30 min at 200 volts. The gel is then dried and autoradiographed.
# In order to verify the functional nature and the efficiency of the above PPRE regions, gel retardation experiments were carried out consisting in studying the binding between one of the four sequences above, radiolabeled beforehand, in the presence of increasing quantities (5 and 10 μl) of PPARγ and RXR proteins prepared in Cos-1 cells (PPARγ/RXR ratio=3:1).
# With the aim of studying the cooperativity of the binding of PPAR/RXR to these different sequences, gel retardation experiments placing increasing quantities of Cos-1 extracts enriched with PPAR and RXR (1 μl to 10 μl), followed by quantification of the radioactivity obtained, were carried out. The formation of the first PPAR/RXR dimer is characterized by the dissociation constant KdII, that of the double dimer, or tetramer, is characterized by the dissociation constant KdIV. The KdII/KdIV ratio (R) is the reflection of the cooperativity of the binding if it is greater than 1.
# The various dimeric and tetrameric complexes and the free probe were quantified by means of a Phosphorimager and represented in FIG. 3. The cooperativity ratios were calculated by means of the abovementioned formula. The sequences (DR1)2 17 and (DR1)2 31 bind as many dimeric and tetrameric forms. The cooperativity ratios are 9 and 12.6 respectively. […] The dimeric form forms only 20% of the total binding, whereas the tetrameric form forms 80% of the total binding. The cooperativity ratio is 34 +/−11.
# [5] = system: PPARα/RXR heterodimer (Cos-1 extracts enriched with PPARα and RXR); experiment: Gel retardation, cooperative binding of PPARα/RXR to radiolabeled PPRE sequences; conditions: PPARα/RXR 3/1, bands counted on a beta scintillation counter
# Experimental: as §7, §8
# With the aim of studying the cooperativity of the binding of PPAR/RXR to these different sequences, gel retardation experiments placing increasing quantities of Cos-1 extracts enriched with PPAR and RXR (1 μl to 10 μl), followed by quantification of the radioactivity obtained, were carried out. […]
# Similar experiments were carried out with PPARα. […] Gel retardation experiments using the four radiolabeled sequences and increasing quantities of Cos-1 extracts enriched with PPARα and RXR (rapport3/1) were carried out. The bands corresponding to the dimeric (D) or tetrameric (T) forms or the free probe (P) were cut out of the gel and then quantified by counting on a beta scintillation counter (FIG. 4). […]
# [6] = system: RSV (Rous Sarcoma Virus) promoter (comparator); experiment: Transcriptional activity of the synthetic promoter compared with the RSV viral promoter; format: cell-based
# Source text: Finally, the levels of transcriptional activities reached by a viral promoter, such as the RSV (Rous Sarcoma Virus) promoter, and that of the synthetic promoter were compared. The basal transcriptional activity of the synthetic promoter is low, it is less than 5% of the activity of the RSV viral promoter.
molecule,measurement,setting,value
"CN(CCOc1ccc(CC2SC(=O)NC2=O)cc1)c1ccccn1 (centres unmarked) [BRL 49653, rosiglitazone]",plasma concentration,[1],about 15 μg/ml
"C[C@@H]1C[C@H]2[C@@H]3CCC4=CC(=O)C=C[C@]4(C)[C@@]3(F)[C@@H](O)C[C@]2(C)[C@@]1(O)C(=O)CO [Dexamethasone, dexamethasone]",activation of transcription of the synthetic promoter,"[2]; dexamethasone alone, concentration not given",about 6 fold
"CCCCC/C=C/C=C1/C(=O)C=C[C@@H]1C/C=C\CCCC(=O)O [PGJ2, 15 deoxy Δ^12-14 PGJ2]",activation of the minimal promoter (−247/+20) of sPLA2-IIA,[3],not activated
same,activation of the minimal promoter (−247/+20) of sPLA2-IIA,[3]; listed as prostaglandin J2,no effect
same,"induction of the hybrid promoter, single inducer",[2],4 fold
"Cc1cccc(Nc2cc(Cl)nc(SCC(=O)O)n2)c1C [Wy-14643, pirinixic acid]",activation of the minimal promoter (−247/+20) of sPLA2-IIA,[3],no effect
same,activation of the minimal promoter (−247/+20) of sPLA2-IIA,[3]; listed as Wy 14643,not activated
same,activation of transcription of the hybrid construct,[2]; Wy-14643 200 μM,3 to 4 fold
CC(C)Cc1ccc(C(C)C(=O)O)cc1 (centres unmarked) [ibuprofen],activation of the construct (DR1)2 21-(−247/+20)-CAT,[2],17 fold
COc1ccc2c(c1)c(CC(=O)O)c(C)n2C(=O)c1ccc(Cl)cc1 [indomethacin],activation of the construct (DR1)2 21-(−247/+20)-CAT,[2],about fivefold
"(DR1)2 17: two DR1s separated center to center by 17 base pairs (DNA CAAAACTAGGTCAAAGGTCAAAACTAGGTCAAAGGTCA; radiolabeled by Klenow fill-in with 32P-dCTP, further chemistry not given here)",cooperativity ratio KdII/KdIV (R),[4],9
same,cooperativity ratio (R),[5],7
"(DR1)2 21: two DR1s separated center to center by 21 base pairs (DNA CAAAACTAGGTCAAAGGTCATCAAAACTAGGTCAAAGGTCA; radiolabeled by Klenow fill-in with 32P-dCTP, further chemistry not given here)","dimeric form, share of total binding",[4]; PPARγ/RXR,20%
same,"tetrameric form, share of total binding",[4]; PPARγ/RXR,80%
same,cooperativity ratio KdII/KdIV (R),[4],34 +/−11
same,cooperativity ratio (R),[5],11.2 and 11
"(DR1)2 31: two DR1s separated center to center by 31 base pairs (DNA CAAAACTAGGTCAAAGGTCATGTCTTTAGGCCCAAAACTAGGTCAAAGGTCA; radiolabeled by Klenow fill-in with 32P-dCTP, further chemistry not given here)",cooperativity ratio KdII/KdIV (R),[4],12.6
same,cooperativity ratio (R),[5],11.6 and 11
IL-1: pro-inflammatory cytokine interleukin-1,stimulation of the activity of the CAT reporter gene,"[3]; 247 bp fragment upstream of first exon of human PLA2s IIA gene, rabbit chondrocytes in primary culture",6 to 8 times
same,induction of the promoter of sPLA2-IIA,[3]; IL-1 10 ng/ml in culture medium,6 fold
same,"induction of the hybrid promoter, single inducer",[2],4 fold
B1,transcriptional activity relative to RSV after induction,[6]; after induction with the different effectors (results not shown),40%
same,"basal transcriptional activity, relative to the RSV viral promoter",[6]; not induced,less than 5%
